According to ChEMBL document CHEMBL5338804 (J Med Chem, 2023):
Converted amounts (≈) assume the structure as drawn.

Experiments:
[1] = Protein binding in rat plasma assessed as unbound fraction at 10 uM incubated for 5 hrs by equilibrium dialysis method; assay type: ADME, cell-free
[2] = Permeability of the compound at 100 uM incubated for 4 hrs at pH 5.5 by PAMPA assay; assay type: ADME; conditions: read-out: permeability
[3] = Thermodynamic aqueous solubility of the compound at pH 7.4 incubated for 18 to 24 hrs by HPLC-UV analysis; assay type: physicochemical; conditions: aqueous medium, time 18-24 hrs, read-out: Therm_solubility
[4] = Drug uptake in brain of LaFerla 3x transgenic Alzheimer's disease C57BL/6 mouse model at 10 mg/kg, po measured after 5 hrs; assay type: ADME, organism-based; conditions: read-out: Drug uptake
[5] = Protein binding in human plasma assessed as unbound fraction at 10 uM incubated for 5 hrs by equilibrium dialysis method; assay type: ADME, cell-free
[6] = Metabolic stability in human liver microsomes assessed as parent compound remaining at 0.5 uM measured after 10 mins in presence of NADPH by LC-MS/MS analysis; assay type: ADME, Microsome; conditions: read-out: Stability
[7] = target: Glycogen synthase kinase-3 beta (Homo sapiens, UniProt P49841, H355L); experiment: Displacement of FL-KRREILSRRP[ps]ERYR-NH2 from human recombinant N-terminal His6-tagged GSK-3-beta (14 to 306 residues) H355L mutant expressed in baculovirus-infected Sf21 cells incubated for 20 hrs by fluorescence based analysis
[8] = Oral bioavailability in C57BL/6 mouse at 10 mg/kg by LC-MS/MS analysis; assay type: ADME, organism-based; conditions: in vivo
[9] = AUC (total) in C57BL/6 mouse at 10 mg/kg, po by LC-MS/MS analysis; assay type: ADME, organism-based; parameters: dose 10 mg/kg, route po; conditions: in vivo
[10] = target: Tyrosine-protein kinase JAK1 (Homo sapiens, UniProt P23458); experiment: Inhibition of JAK1 (unknown origin)
[11] = target: Glycogen synthase kinase-3 (Homo sapiens, UniProt P49840+P49841); experiment: Inhibition of GSK-3 in human U2OS cells transfected with beta-catenin GFP and 4R1N tau plasmid assessed as inhibition of Tau phosphorylation at Ser396 residues by high-content imaging assay; assay type: cell-based
[12] = target: Casein kinase II subunit alpha' (Homo sapiens, UniProt P19784); experiment: Inhibition of CK2A2 (unknown origin)
[13] = Protein binding in mouse plasma assessed as unbound fraction at 10 uM incubated for 5 hrs by equilibrium dialysis method; assay type: ADME, cell-free
[14] = target: Serine/threonine-protein kinase pim-1 (Homo sapiens, UniProt P11309); experiment: Inhibition of PIM1 (unknown origin)
[15] = Clearance in C57BL/6 mouse at 2 mg/kg, iv by LC-MS/MS analysis; assay type: ADME, organism-based; conditions: in vivo
[16] = Ratio of unbound drug concentration in mouse brain to plasma at 10 uM incubated for 5 hrs by equilibrium dialysis method; assay type: ADME, cell-free; conditions: read-out: K(p,uu,brain)
[17] = Metabolic stability in mouse liver microsomes assessed as parent compound remaining at 0.5 uM measured after 10 mins in presence of NADPH by LC-MS/MS analysis; assay type: ADME, Microsome; conditions: read-out: Stability
[18] = target: Glycogen synthase kinase-3 alpha (Homo sapiens, UniProt P49840); experiment: Displacement of FL-KRREILSRRP[ps]ERYR-NH2 from human recombinant full length GST-tagged GSK-3-alpha expressed in insect cells incubated for 20 hrs by fluorescence based analysis; parameters: species or system Insect cell
[19] = target: Platelet-derived growth factor receptor beta (Homo sapiens, UniProt P09619); experiment: Inhibition of PDGFR-beta (unknown origin)
[20] = target: Protein kinase C theta type (Homo sapiens, UniProt Q04759); experiment: Inhibition of PKC theta (unknown origin)
[21] = Permeability of the compound from apical to basolateral side in human Caco-2 cells at 3 uM incubated for 2 hrs by LC-MS/MS analysis; assay type: ADME, cell-based; conditions: read-out: permeability
Aurora kinase A = Aurora kinase A (Mus musculus, UniProt P97477); experiment: Inhibition of mouse Aurora kinase A
[22] = Permeability of the compound from basolateral to apical side in human Caco-2 cells at 3 uM incubated for 2 hrs by LC-MS/MS analysis; assay type: ADME, cell-based; conditions: read-out: permeability
[23] = Plasma concentration in LaFerla 3x transgenic Alzheimer's disease C57BL/6 mouse model at 10 mg/kg, po measured after 5 hrs; assay type: ADME, organism-based
[24] = target: Tyrosine-protein kinase JAK2 (Homo sapiens, UniProt O60674); experiment: Inhibition of JAK2 (unknown origin)
[25] = target: Mitogen-activated protein kinase 14 (Homo sapiens, UniProt Q16539); experiment: Inhibition of MAPK p38-alpha (unknown origin)
[26] = Ratio of drug concentration in brain to plasma in LaFerla 3x transgenic Alzheimer's disease C57BL/6 mouse model at 10 mg/kg, po measured after 5 hrs; assay type: ADME, organism-based; conditions: read-out: BPR
[27] = target: Interleukin-1 receptor-associated kinase 1 (Homo sapiens, UniProt P51617); experiment: Inhibition of IRAK1 (unknown origin)
[28] = target: AP2-associated protein kinase 1 (Homo sapiens, UniProt Q2M2I8); experiment: Inhibition of AAK1 (unknown origin)
[29] = target: Cyclin-dependent kinase 2 (Homo sapiens, UniProt P24941); experiment: Inhibition of CDK2 (unknown origin)
[30] = target: Tyrosine-protein kinase BTK (Homo sapiens, UniProt Q06187); experiment: Inhibition of BTK (unknown origin)
[31] = Volume of distribution at steady state in C57BL/6 mouse at 2 mg/kg, iv by LC-MS/MS analysis; assay type: ADME, organism-based; conditions: in vivo, read-out: Vdss
[32] = target: Tyrosine-protein kinase SYK (Homo sapiens, UniProt P43405); experiment: Inhibition of SYK (unknown origin)
[33] = Protein binding in mouse brain assessed as unbound fraction at 1 uM incubated for 4 hrs by LC-MS analysis; assay type: ADME, tissue-based
[34] = Cmax in C57BL/6 mouse at 10 mg/kg, po by LC-MS/MS analysis; assay type: ADME, organism-based; parameters: dose 10 mg/kg, route po; conditions: in vivo
Aurora kinase B = Aurora kinase B (Homo sapiens, UniProt Q96GD4); experiment: Inhibition of Aurora kinase B (unknown origin)
[35] = target: Mast/stem cell growth factor receptor Kit (Homo sapiens, UniProt P10721); experiment: Inhibition of c-Kit (unknown origin)
[36] = target: Ribosomal protein S6 kinase alpha-1 (Homo sapiens, UniProt Q15418); experiment: Inhibition of RSK1 (unknown origin)
[37] = target: Cyclin-dependent kinase 5 (Homo sapiens, UniProt Q00535); experiment: Inhibition of CDK5 (unknown origin)
[38] = Half life in C57BL/6 mouse at 2 mg/kg, iv by LC-MS/MS analysis; assay type: ADME, organism-based; conditions: in vivo
[39] = MRT in C57BL/6 mouse at 2 mg/kg, iv by LC-MS/MS analysis; assay type: ADME, organism-based; conditions: in vivo
[40] = target: Casein kinase I isoform alpha (Homo sapiens, UniProt P48729); experiment: Inhibition of CK1A1 (unknown origin)
[41] = target: Casein kinase II subunit alpha (Homo sapiens, UniProt P68400); experiment: Inhibition of CK2A1 (unknown origin)
[42] = target: Non-receptor tyrosine-protein kinase TYK2 (Homo sapiens, UniProt P29597); experiment: Inhibition of TYK2 (unknown origin)
[43] = Permeability of the compound at 100 uM incubated for 4 hrs at pH 7.4 by PAMPA assay; assay type: ADME; conditions: read-out: permeability
[44] = target: MAP kinase-activated protein kinase 2 (Homo sapiens, UniProt P49137); experiment: Inhibition of MK2 (unknown origin)
[45] = Thermodynamic aqueous solubility of the compound at pH 1 incubated for 18 to 24 hrs by HPLC-UV analysis; assay type: physicochemical; conditions: aqueous medium, time 18-24 hrs, read-out: Therm_solubility
[46] = Metabolic stability in rat liver microsomes assessed as parent compound remaining at 0.5 uM measured after 10 mins in presence of NADPH by LC-MS/MS analysis; assay type: ADME, Microsome; conditions: read-out: Stability
[47] = target: Interleukin-1 receptor-associated kinase 4 (Homo sapiens, UniProt Q9NWZ3); experiment: Inhibition of IRAK4 (unknown origin)
[48] = target: Tyrosine-protein kinase Lck (Homo sapiens, UniProt P06239); experiment: Inhibition of LCK (unknown origin)
[49] = target: Insulin-like growth factor 1 receptor (Homo sapiens, UniProt P08069); experiment: Inhibition of IGF1R (unknown origin)
Mus musculus = experiment: Anti-alzheimer activity against LaFerla 3x transgenic Alzheimer's disease C57BL/6 mouse model assessed as reduction in tau phosphorylation at Ser396 residue in brain at 10 mg/kg, po measured after 5 hrs by ELISA; assay type: functional

Tyrosine-protein kinase Lck, sequence (P06239 whole entry): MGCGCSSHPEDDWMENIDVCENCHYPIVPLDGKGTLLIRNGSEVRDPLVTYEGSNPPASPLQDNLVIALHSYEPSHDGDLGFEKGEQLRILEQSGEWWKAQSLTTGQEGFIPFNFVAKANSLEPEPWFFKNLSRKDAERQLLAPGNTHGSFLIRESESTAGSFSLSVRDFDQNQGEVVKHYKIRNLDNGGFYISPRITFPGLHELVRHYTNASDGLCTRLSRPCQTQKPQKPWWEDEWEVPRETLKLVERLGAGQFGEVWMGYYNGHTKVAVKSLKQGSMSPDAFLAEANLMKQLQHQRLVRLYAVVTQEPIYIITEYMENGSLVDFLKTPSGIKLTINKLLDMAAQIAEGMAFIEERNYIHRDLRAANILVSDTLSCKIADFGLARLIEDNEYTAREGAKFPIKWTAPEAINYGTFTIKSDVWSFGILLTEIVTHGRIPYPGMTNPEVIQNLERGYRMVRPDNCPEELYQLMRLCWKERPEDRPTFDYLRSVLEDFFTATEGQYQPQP
MAP kinase-activated protein kinase 2, sequence (P49137 whole entry): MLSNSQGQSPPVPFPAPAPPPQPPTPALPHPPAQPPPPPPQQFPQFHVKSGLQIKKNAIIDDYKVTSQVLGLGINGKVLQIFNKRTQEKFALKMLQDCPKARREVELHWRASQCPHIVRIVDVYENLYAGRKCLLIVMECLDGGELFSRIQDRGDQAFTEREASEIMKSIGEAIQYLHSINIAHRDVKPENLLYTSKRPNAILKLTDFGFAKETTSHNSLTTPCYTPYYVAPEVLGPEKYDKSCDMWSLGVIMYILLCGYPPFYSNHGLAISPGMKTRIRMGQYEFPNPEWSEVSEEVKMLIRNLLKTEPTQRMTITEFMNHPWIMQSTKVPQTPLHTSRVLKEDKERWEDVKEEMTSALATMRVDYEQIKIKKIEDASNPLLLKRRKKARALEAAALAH
Tyrosine-protein kinase JAK1, sequence (P23458 whole entry): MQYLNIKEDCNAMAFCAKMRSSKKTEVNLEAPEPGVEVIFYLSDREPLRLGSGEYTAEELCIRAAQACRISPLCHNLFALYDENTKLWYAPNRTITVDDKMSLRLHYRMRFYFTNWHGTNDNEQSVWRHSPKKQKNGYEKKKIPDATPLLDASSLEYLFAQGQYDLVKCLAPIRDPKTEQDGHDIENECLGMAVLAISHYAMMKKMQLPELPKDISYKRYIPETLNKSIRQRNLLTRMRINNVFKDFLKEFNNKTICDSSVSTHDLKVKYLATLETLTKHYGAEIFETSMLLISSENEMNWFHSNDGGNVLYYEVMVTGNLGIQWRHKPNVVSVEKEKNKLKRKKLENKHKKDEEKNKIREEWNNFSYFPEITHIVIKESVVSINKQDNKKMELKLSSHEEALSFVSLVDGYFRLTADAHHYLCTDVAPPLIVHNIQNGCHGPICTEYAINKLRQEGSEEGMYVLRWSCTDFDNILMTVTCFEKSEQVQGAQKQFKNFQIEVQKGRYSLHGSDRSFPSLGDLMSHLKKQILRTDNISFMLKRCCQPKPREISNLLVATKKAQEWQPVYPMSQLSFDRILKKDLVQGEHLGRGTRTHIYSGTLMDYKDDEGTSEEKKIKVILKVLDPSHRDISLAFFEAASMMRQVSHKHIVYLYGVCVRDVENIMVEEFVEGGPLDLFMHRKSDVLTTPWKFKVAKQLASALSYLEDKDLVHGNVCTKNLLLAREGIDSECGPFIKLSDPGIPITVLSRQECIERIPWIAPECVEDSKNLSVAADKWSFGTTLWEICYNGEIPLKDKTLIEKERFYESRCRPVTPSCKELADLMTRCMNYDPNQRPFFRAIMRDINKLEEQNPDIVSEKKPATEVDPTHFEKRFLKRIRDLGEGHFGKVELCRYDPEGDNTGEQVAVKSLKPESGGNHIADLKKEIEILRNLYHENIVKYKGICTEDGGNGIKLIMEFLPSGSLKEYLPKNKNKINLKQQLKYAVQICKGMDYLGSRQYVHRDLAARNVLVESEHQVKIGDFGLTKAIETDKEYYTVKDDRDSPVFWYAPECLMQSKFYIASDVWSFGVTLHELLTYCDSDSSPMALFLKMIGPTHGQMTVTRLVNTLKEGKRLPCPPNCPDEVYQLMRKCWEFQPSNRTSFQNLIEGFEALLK
Cyclin-dependent kinase 5, sequence (Q00535 whole entry): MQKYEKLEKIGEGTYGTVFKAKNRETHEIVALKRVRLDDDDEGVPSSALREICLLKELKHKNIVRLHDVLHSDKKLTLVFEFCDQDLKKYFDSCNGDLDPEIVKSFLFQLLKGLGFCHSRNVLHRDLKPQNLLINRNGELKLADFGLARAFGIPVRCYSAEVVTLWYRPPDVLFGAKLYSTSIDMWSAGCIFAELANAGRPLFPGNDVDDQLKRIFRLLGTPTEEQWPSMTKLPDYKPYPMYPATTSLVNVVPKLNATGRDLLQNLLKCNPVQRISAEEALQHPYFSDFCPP
Platelet-derived growth factor receptor beta, sequence (P09619 whole entry): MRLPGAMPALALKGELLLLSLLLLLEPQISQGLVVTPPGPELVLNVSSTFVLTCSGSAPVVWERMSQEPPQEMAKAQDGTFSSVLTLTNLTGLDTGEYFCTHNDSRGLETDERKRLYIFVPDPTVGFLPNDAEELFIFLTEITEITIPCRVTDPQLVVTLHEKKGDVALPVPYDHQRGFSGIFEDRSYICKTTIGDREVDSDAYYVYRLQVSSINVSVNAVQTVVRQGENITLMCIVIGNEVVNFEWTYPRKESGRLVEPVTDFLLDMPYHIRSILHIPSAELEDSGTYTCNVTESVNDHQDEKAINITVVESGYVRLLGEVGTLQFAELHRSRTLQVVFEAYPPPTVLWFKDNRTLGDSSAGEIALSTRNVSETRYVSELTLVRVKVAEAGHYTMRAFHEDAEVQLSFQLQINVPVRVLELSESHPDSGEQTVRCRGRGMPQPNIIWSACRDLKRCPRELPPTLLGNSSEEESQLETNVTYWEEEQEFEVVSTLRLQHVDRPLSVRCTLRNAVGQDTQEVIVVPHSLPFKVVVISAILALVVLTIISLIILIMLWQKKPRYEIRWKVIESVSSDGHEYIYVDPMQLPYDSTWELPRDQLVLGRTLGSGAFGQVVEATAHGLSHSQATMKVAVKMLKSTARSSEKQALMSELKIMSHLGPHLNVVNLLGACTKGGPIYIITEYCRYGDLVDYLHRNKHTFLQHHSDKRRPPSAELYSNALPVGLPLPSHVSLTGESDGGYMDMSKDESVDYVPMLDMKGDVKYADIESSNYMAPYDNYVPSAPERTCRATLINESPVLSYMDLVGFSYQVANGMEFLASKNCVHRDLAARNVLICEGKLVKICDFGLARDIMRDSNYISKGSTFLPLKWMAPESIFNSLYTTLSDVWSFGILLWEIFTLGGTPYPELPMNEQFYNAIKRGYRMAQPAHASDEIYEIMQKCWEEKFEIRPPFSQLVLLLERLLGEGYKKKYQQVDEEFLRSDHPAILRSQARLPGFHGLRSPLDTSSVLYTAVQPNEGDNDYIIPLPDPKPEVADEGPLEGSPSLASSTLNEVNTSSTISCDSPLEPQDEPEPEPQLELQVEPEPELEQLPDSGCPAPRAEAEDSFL
Interleukin-1 receptor-associated kinase 4, sequence (Q9NWZ3 whole entry): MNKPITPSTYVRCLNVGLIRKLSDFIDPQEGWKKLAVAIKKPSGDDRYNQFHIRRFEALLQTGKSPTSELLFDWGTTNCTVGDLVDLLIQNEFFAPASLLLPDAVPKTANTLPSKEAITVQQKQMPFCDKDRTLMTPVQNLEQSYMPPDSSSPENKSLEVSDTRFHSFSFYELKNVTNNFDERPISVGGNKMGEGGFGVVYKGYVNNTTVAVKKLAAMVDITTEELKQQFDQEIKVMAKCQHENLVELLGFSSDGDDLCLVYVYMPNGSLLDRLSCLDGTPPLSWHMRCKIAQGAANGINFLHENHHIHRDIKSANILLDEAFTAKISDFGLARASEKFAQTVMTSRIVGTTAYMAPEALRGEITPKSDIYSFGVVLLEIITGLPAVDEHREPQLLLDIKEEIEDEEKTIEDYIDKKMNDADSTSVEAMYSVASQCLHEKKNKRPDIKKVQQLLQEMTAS
Protein kinase C theta type, sequence (Q04759 whole entry): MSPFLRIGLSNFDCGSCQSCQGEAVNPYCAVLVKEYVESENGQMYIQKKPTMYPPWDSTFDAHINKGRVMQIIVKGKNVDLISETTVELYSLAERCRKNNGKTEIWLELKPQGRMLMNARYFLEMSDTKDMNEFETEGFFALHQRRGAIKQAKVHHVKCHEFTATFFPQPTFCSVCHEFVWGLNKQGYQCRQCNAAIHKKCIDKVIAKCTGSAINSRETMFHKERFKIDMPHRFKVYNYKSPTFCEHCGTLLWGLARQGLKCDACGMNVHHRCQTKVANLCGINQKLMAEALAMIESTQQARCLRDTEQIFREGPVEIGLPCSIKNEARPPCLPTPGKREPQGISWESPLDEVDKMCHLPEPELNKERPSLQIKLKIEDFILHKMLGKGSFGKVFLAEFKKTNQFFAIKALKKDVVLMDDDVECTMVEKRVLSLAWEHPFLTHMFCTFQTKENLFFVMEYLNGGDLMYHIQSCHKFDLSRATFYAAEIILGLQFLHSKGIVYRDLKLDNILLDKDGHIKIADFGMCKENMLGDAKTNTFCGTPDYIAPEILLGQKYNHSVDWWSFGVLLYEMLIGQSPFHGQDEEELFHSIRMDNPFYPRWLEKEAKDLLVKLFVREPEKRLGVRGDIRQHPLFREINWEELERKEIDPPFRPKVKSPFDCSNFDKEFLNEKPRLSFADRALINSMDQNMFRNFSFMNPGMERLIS
Serine/threonine-protein kinase pim-1, sequence (P11309 whole entry): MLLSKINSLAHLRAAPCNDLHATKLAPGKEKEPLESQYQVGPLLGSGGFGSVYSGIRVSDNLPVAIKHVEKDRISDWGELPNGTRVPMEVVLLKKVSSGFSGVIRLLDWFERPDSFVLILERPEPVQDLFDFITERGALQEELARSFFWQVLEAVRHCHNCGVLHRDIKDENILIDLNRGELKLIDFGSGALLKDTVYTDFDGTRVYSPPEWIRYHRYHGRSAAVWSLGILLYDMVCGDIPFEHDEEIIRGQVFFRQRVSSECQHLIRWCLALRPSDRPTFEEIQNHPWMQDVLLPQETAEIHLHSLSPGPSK

O=C(Nc1cnccc1-c1ccc(F)cc1)c1ccnc(Nc2ccc(F)cc2)n1
fraction unbound at 5 h, 10 µM [1]: 0.007
Papp at 4 h, 100 µM [2]: 62 ×10⁻⁶ cm/s
solubility thermodynamic [3]: 1 µg/mL (≈ 2.48 µM)
concentration at 5 h [4]: 180 nM
fraction unbound at 5 h, 10 µM [5]: 0.002
remaining at 10 min, 0.5 µM [6]: 67%
IC50 [7]: 0.00056 µM
bioavailability [8]: 53%
AUC [9]: 11.7 µM·h
IC50 [10]: > 50 µM
IC50 [11]: 0.034 µM
IC50 [12]: > 2 µM
fraction unbound at 5 h, 10 µM [13]: 0.008
IC50 [14]: 1.4 µM
clearance [15]: 18.9 mL/min/kg
Kp uu at 5 h, 10 µM [16]: 0.4
remaining at 10 min, 0.5 µM [17]: 54%
IC50 [18]: 0.00045 µM
IC50 [19]: > 50 µM
IC50 [20]: 10.4 µM
Papp A→B at 2 h, 3 µM [21]: 11.8 ×10⁻⁶ cm/s
IC50 (Aurora kinase A): > 50 µM
Papp B→A at 2 h, 3 µM [22]: 4.4 ×10⁻⁶ cm/s
concentration at 5 h [23]: 180 nM
IC50 [24]: 14 µM
IC50 [25]: > 50 µM
Kp at 5 h [26]: 1
IC50 [27]: > 2 µM
IC50 [28]: > 2 µM
IC50 [29]: 0.47 µM
IC50 [30]: > 50 µM
Vd [31]: 2.6 L/kg
IC50 [32]: 16 µM
fraction unbound at 4 h, 1 µM [33]: 0.003
Cmax [34]: 1500 nM
IC50 (Aurora kinase B): 11 µM
IC50 [35]: > 2 µM
IC50 [36]: > 50 µM
IC50 [37]: 0.68 µM
half-life [38]: 2.8 h
MRT [39]: 2.3 h
IC50 [40]: > 2 µM
IC50 [41]: > 50 µM
IC50 [42]: 17 µM
Papp at 4 h, 100 µM [43]: 59 ×10⁻⁶ cm/s
IC50 [44]: > 27 µM
solubility thermodynamic [45]: 31 µg/mL (≈ 76.8 µM)
remaining at 10 min, 0.5 µM [46]: 10%
IC50 [47]: > 23 µM
IC50 [48]: > 2 µM

N#Cc1ccc(Nc2nccc(C(=O)Nc3cnccc3-c3ccc(F)cc3)n2)cc1
fraction unbound at 5 h, 10 µM [1]: 0.019
Papp at 4 h, 100 µM [2]: 121 ×10⁻⁶ cm/s
solubility thermodynamic [3]: < 1 µg/mL
concentration at 5 h [4]: 370 nM
fraction unbound at 5 h, 10 µM [5]: 0.011
remaining at 10 min, 0.5 µM [6]: 79%
IC50 [7]: 0.00035 µM
bioavailability [8]: 100%
AUC [9]: 24.3 µM·h
IC50 [10]: 31 µM
IC50 [11]: 0.01 µM
IC50 [12]: > 2 µM
fraction unbound at 5 h, 10 µM [13]: 0.03
IC50 [14]: 0.72 µM
clearance [15]: 23.3 mL/min/kg
Kp uu at 5 h, 10 µM [16]: 0.4
remaining at 10 min, 0.5 µM [17]: 66%
IC50 [18]: 0.00025 µM
IC50 [19]: 37 µM
IC50 [20]: 17 µM
Papp A→B at 2 h, 3 µM [21]: 24.4 ×10⁻⁶ cm/s
IC50 (Aurora kinase A): 17 µM
Papp B→A at 2 h, 3 µM [22]: 9.8 ×10⁻⁶ cm/s
concentration at 5 h [23]: 410 nM
IC50 [24]: 13 µM
IC50 [25]: 23 µM
Kp at 5 h [26]: 0.9
IC50 [27]: > 2 µM
IC50 [28]: > 2 µM
IC50 [29]: 0.22 µM
IC50 [30]: 13 µM
Vd [31]: 5.4 L/kg
IC50 [32]: > 50 µM
fraction unbound at 4 h, 1 µM [33]: 0.012
Cmax [34]: 3500 nM
IC50 (Aurora kinase B): 11 µM
IC50 [35]: 5.6 µM
IC50 [36]: > 50 µM
IC50 [37]: 1.3 µM
half-life [38]: 2.5 h
IC50 [49]: 17 µM
MRT [39]: 3.9 h
IC50 [40]: > 2 µM
IC50 [41]: > 50 µM
IC50 [42]: > 50 µM
Papp at 4 h, 100 µM [43]: 84 ×10⁻⁶ cm/s
IC50 [44]: > 50 µM
solubility thermodynamic [45]: 16 µg/mL (≈ 39 µM)
remaining at 10 min, 0.5 µM [46]: 66%
inhibition in vivo at 10 mg/kg (Mus musculus): 33%
IC50 [47]: > 50 µM
IC50 [48]: > 2 µM
